Test results: PubChem BioAssay AID2060886 (Molecular Pharmacology Branch, DTP, NCI, 2025)

Tested on: 653999-131-R-J2-PDC complex spheroids, growth inhibition
Assay: Anticancer human tumor 653999-131-R-J2-PDC patient-derived lung adenocarcinoma cell line growth inhibition [RAS]
Details: for viability, T/C: stronger effect = lower value; active means viability on the fitted dose curve at most 10% of control; inactive means the rest
Source text: RAS pathway inhibitors in Combinations in Complex Spheroids
A high-throughput screen of multi-cell type tumor spheroids was designed to identify active combinations of RAS pathway inhibitors and targeted small molecules. Complex spheroids include a stromal component modeled by human endothelial cells (HUVEC) and fibroblasts modeled by human mesenchymal stem cells (MSCs). The concentration ranges selected for each drug and investigational agent were based upon clinically achievable concentrations if the clinical Cmax of the agent was known.
Compounds. The drugs and investigational agents: abemaciclib (NSC768073), cobimetinib (NSC768068), divarasib (GDC6063, NSC841802), docetaxel (NSC628503), GDC-1971 (RLY-1971, NSC841576), gemcitabine (NSC613327), inavolisib (NSC800729), ipatasertib (NSC767898), KB-0742 (NSC834161), MRTX-1133 (NSC836407), osimertinib (NSC779217), RMC-4630 (NSC839698), RMC-6236 (NSC851965), RMC-6291 (NSC852671), Ro-3306 (NSC812927), sapanisertib (NSC764658), SN-38 (NSC673596), staurosporine (NSC755774), SY5609 (NSC837396), and tovorafenib (DAY101, NSC766906), were obtained from the National Cancer Institute (NCI) Developmental Therapeutics Program Chemical Repository. The FDA-approved anticancer drug set is available from the NCI Developmental Therapeutics Program. […] The stock solutions were prepared in dimethyl sulfoxide (DMSO, Sigma-Aldrich, St. Louis, MO, cat. D2650) at 800-fold the tested concentration and stored at -70 degrees C prior to their use. All drugs and investigational agents were tested over a range starting from a high concentration at or near the clinical Cmax and decreasing in half-log increments. If the clinical Cmax for an agent had not been determined, the highest concentration tested was 10 microM.
Cell Culture. All cells were maintained in an incubator at 37 degrees C and 5% CO2 with 95% humidity. The PDC lines were cultured according to standard operating procedures established by the NCI PDMR. All PDCs were thawed and cultured in Matrigel-coated flasks prepared with a working solution of 1X Ham's F-12 nutrient mix, without supplementation (Invitrogen, Waltham, MA, cat. 11765054), 100 U/mL penicillin-streptomycin (Invitrogen, cat. 15140122), and 2.5% Matrigel (Corning Inc., Corning, NY, cat. 354248) for the first three passages. The 362531-283-R-J2-PDC and 782815-120-R-J1-PDC lines were cultured in 6C/Colon 1B media, which includes advanced DMEM/F-12 (Thermo Fisher Scientific, cat. 12634028), 10 mM HEPES (Thermo Fisher Scientific, cat. 15630080), 1X GlutaMAX supplement (Thermo Fisher Scientific, cat. 35050061), 0.1 mg/mL primocin (InvivoGen, San Diego, CA, cat. ant-pm-2), 10% defined fetal bovine serum, heat inactivated (HyClone Laboratories Inc., Logan, UT, cat. SH30070.03HI), 50% L-WRN conditioned media (ATCC, cat. CRL-3276), 1.25 mM N-Acetyl-L-cysteine (Sigma-Aldrich, cat. A9165), 10 mM nicotinamide (Sigma-Aldrich, cat. N0636), 1X B-27 supplement (Thermo Fisher Scientific, cat. 17504044), 1X N-2 supplement (Thermo Fisher Scientific, cat. 17502048), 50 ng/mL human EGF (Thermo Fisher Scientific, cat. PHG0311), and 10 microM Y-27632 dihydrochloride (Tocris Bioscience, cat. 1254). The K12877-001-R-J1-PDC line was cultured in 6I media, which includes all 6C/Colon 1B media plus 10 ng/mL human FGF-10 (PeproTech, cat. 100-26), 1 ng/mL human FGF-2 (PeproTech, cat. 100-18B), 1 µM prostaglandin E2 (Tocris Bioscience, cat. 2296), […] hydrocortisone (Sigma-Aldrich, cat. H4001), and […] bovine insulin (Sigma-Aldrich, cat. I6634). The K86415-001-R-J1-PDC line was cultured in 6D media, which includes all 6C/Colon 1B media components minus the L-WRN conditioned media. The 485176-168-R4-J1-PDC was cultured in PANC media, which includes all 6C/Colon 1B media plus 100 ng/mL human FGF-10 (PeproTech, cat. 100-26), 500 nM SB-431542 (Selleckchem, cat. S1067), and 10 nM gastrin (Tocris Bioscience, cat. 3006). […]
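Further: spheroids exposed to the agents for seven days before the readout.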

C=CC(=O)N1CCN(c2nc(OCC3CCCN3C)nc3c(F)c(-c4nc(N)cc(C)c4C(F)(F)F)c(Cl)cc23)C(C)C1 (stereo not drawn) + CCn1c(-c2cc(N3CCN(C)CC3)cnc2C(C)OC)c2c3cc(ccc31)-c1csc(n1)CC(NC(=O)C1CC1C)C(=O)N1CCCC(N1)C(=O)OCC(C)(C)C2
inactive: viability, T/C (second compound 0.000949 µM, first compound 0.00316 µM) 83.2% | viability, T/C (second compound 0.000949 µM, first compound 0.01 µM) 82.7% | viability, T/C (second compound 0.000949 µM, first compound 0.0316 µM) 82.1% | viability, T/C (second compound 0.000949 µM, first compound 0.1 µM) 78.4% | viability, T/C (second compound 0.000949 µM, first compound 0.316 µM) 92% | viability, T/C (second compound 0.000949 µM, first compound 1 µM) 86.1% | viability, T/C (second compound 0.003 µM, first compound 0.00316 µM) 57.9% | viability, T/C (second compound 0.003 µM, first compound 0.01 µM) 63% | viability, T/C (second compound 0.003 µM, first compound 0.0316 µM) 59.1% | viability, T/C (second compound 0.003 µM, first compound 0.1 µM) 65.7% | viability, T/C (second compound 0.003 µM, first compound 0.316 µM) 63.3% | viability, T/C (second compound 0.003 µM, first compound 1 µM) 75.6% | viability, T/C (second compound 0.00949 µM, first compound 0.00316 µM) 50% | viability, T/C (second compound 0.00949 µM, first compound 0.01 µM) 57.5% | viability, T/C (second compound 0.00949 µM, first compound 0.0316 µM) 50.2% | viability, T/C (second compound 0.00949 µM, first compound 0.1 µM) 40.4% | viability, T/C (second compound 0.00949 µM, first compound 0.316 µM) 40.2% | viability, T/C (second compound 0.00949 µM, first compound 1 µM) 42.6% | viability, T/C (second compound 0.03 µM, first compound 0.00316 µM) 46.5% | viability, T/C (second compound 0.03 µM, first compound 0.01 µM) 35.3% | viability, T/C (second compound 0.03 µM, first compound 0.0316 µM) 43.2% | viability, T/C (second compound 0.03 µM, first compound 0.1 µM) 32% | viability, T/C (second compound 0.03 µM, first compound 0.316 µM) 37.3% | viability, T/C (second compound 0.03 µM, first compound 1 µM) 34.9% | viability, T/C (second compound 0.0949 µM, first compound 0.00316 µM) 28.9% | viability, T/C (second compound 0.0949 µM, first compound 0.01 µM) 29.4% | viability, T/C (second compound 0.0949 µM, first compound 0.0316 µM) 26.7% | viability, T/C (second compound 0.0949 µM, first compound 0.1 µM) 38.9% | viability, T/C (second compound 0.0949 µM, first compound 0.316 µM) 38.6% | viability, T/C (second compound 0.0949 µM, first compound 1 µM) 35.9% | viability, T/C (second compound 0.3 µM, first compound 0.00316 µM) 29.5% | viability, T/C (second compound 0.3 µM, first compound 0.01 µM) 27.5% | viability, T/C (second compound 0.3 µM, first compound 0.0316 µM) 21.8% | viability, T/C (second compound 0.3 µM, first compound 0.1 µM) 32.6% | viability, T/C (second compound 0.3 µM, first compound 0.316 µM) 28.3% | viability, T/C (second compound 0.3 µM, first compound 1 µM) 26.1%
32.4 nM: IC50 (curve of first compound, second compound 0.00949 µM)
< 3.16 nM: IC50 (curve of first compound, second compound 0.03 µM) | IC50 (curve of first compound, second compound 0.0949 µM) | IC50 (curve of first compound, second compound 0.3 µM)
> 1000 nM: IC50 (curve of first compound, second compound 0.000949 µM) | IC50 (curve of first compound, second compound 0.003 µM)

CCn1c(-c2cccnc2C(C)OC)c2c3cc(ccc31)N1CCOC(CC(NC(=O)C(C(C)C)N(C)C(=O)C3(F)CCN(C(=O)C#CC(C)(C)N(C)C)CC3)C(=O)N3CCCC(N3)C(=O)OCC(C)(C)C2)C1 (stereo not drawn)
inactive: viability, T/C (compound 0.003 µM) 95.1% [middle of 8 runs] | viability, T/C (compound 0.00949 µM) 99.5% [middle of 8 runs] | viability, T/C (compound 0.03 µM) 104% [middle of 8 runs] | viability, T/C (compound 0.0949 µM) 99.9% [middle of 8 runs] | viability, T/C (compound 0.3 µM) 107% [middle of 8 runs]
> 300 nM: IC50 (compound alone, run of 08/20/2024)
